Test results as given in patent publication US11939300B2, “Compounds and methods for treating autoimmune disorders by targeting HLA-DQ2” (ImmunoMolecular Therapeutics, Inc., priority 2020, dated 2024).

Tested on: HLA-DQ2
Experiment: Inhibition of IL-2 secretion by TCR transductants stimulated by α-gliadin peptides presented by HLA-DQ2 expressing K562 cells (ELISA)
Assay type: cell-based, human
Settings: for DQ2 IL2 Maximal % Inhibition: IL-2 secretion, at the concentration given in brackets; for concentration at which the compound exhibited maximum % inhibition (DQ2 IL2): from dose-response curve, figure in brackets in the cell
Method: Three commercially available analogues of the DQ2 binding molecules of the invention were tested for their ability to inhibit stimulation of T cell receptor (TCR) transductants in the presence of HLA-DQ2 expressing cells presenting known α-gliadin epitopes.
Using a previously published in vitro assay (Ostrov D, et al. Methyldopa blocks MHC class II binding to disease specific antigens in autoimmune diabetes. J Clin Invest. 2018:128(5)) we measured the ability of these DQ2 binding analogues to inhibit interleukin-2 (IL-2) secretion by TCR transductants stimulated by α-gliadin peptides presented by HLA-DQ2. Individual TCR transductants (recognizing α I-gliadin or α II-gliadin) were cultured with a gliadin peptide plus the small molecule analogues in the presence of HLA-DQ2 expressing K562 cells serving as antigen presenting cells. TCR transductants cultured with no gliadin peptide served as the negative control, and incubation with an anti-CD3 antibody (eBioscience; clone 2C11) served as a positive control for the TCR transductant. Secreted IL-2 in the culture supernatant was measured using a highly sensitive enzyme-linked immunosorbent assay (ELISA). […] Assays for effects on cell viability and for specificity, assayed in the absence of gliadin peptide or in the presence of a stimulating anti-CD3 antibody, were performed. A=71-100%; B=41-70%; C=11-40%; D=0-10%, NT=Not tested.

[1] = TCR transductants (α I- or α II-gliadin) + gliadin peptide + HLA-DQ2 K562 cells
[2] = Table 2, TCR transductants + gliadin peptide + HLA-DQ2 K562 cells

## CC(C)c1ccc(C(=O)NC2CCc3nn(C4CCOCC4)c(=O)cc3C2)cc1 (stereo not drawn) [Compound 55]
[1]
  DQ2 IL2 Maximal % Inhibition: A (A=71-100%)
  concentration at which the compound exhibited maximum % inhibition (DQ2 IL2): 200 µM

## CC(C)c1ccc(C(=O)NC2CCc3nn(C4CCC4)c(=O)cc3C2)cc1 (stereo not drawn) [Compound 56]
[1]
  DQ2 IL2 Maximal % Inhibition: A (A=71-100%)
  concentration at which the compound exhibited maximum % inhibition (DQ2 IL2): 200 µM

## CC(C)c1ccc(C(=O)NC2CCc3nn(CC(F)(F)F)c(=O)cc3C2)cc1 (stereo not drawn) [Compound 57, 4-isopropyl-N-(3-oxo-2-(2,2,2-trifluoroethyl)-2,3,5,6,7,8-hexahydrocinnolin-6-yl)benzamide]
[1]
  DQ2 IL2 Maximal % Inhibition: A (A=71-100%)
  concentration at which the compound exhibited maximum % inhibition (DQ2 IL2): 200 µM

## CC(C)c1ccc(C(=O)NC2CCc3nn(CC(C)(C)O)c(=O)cc3C2)cc1 (stereo not drawn) [Compound 58]
[1]
  DQ2 IL2 Maximal % Inhibition: A (A=71-100%)
  concentration at which the compound exhibited maximum % inhibition (DQ2 IL2): 200 µM

## CC(C)c1ccc(C(=O)NC2CCc3nn(C4CCCC4)c(=O)cc3C2)cc1 (stereo not drawn) [Compound 59]
[1]
  DQ2 IL2 Maximal % Inhibition: A (A=71-100%)
  concentration at which the compound exhibited maximum % inhibition (DQ2 IL2): 200 µM

## CCc1ccc(C(=O)NC2CCc3n[nH]c(=O)cc3C2)cc1 (stereo not drawn) [Compound 60]
[2]
  DQ2 IL2 Maximal % Inhibition: A (A=71-100%)
Table 2
  concentration at which the compound exhibited maximum % inhibition (DQ2 IL2): 200 µM

## Cn1nc2c(cc1=O)CC(NC(=O)c1ccc3ccccc3n1)CC2 (stereo not drawn) [Compound 61]
[2]
  DQ2 IL2 Maximal % Inhibition: A (A=71-100%)
Table 2
  concentration at which the compound exhibited maximum % inhibition (DQ2 IL2): 200 µM

## CC(C)Oc1ccc(C(=O)NC2CCc3nn(C)c(=O)cc3C2)cc1 (stereo not drawn) [Compound 62]
[2]
  DQ2 IL2 Maximal % Inhibition: A (A=71-100%)
Table 2
  concentration at which the compound exhibited maximum % inhibition (DQ2 IL2): 200 µM

## Cn1nc2c(cc1=O)CC(NC(=O)c1cccc(C(F)(F)F)c1)CC2 (stereo not drawn) [Compound 63]
[2]
  DQ2 IL2 Maximal % Inhibition: A (A=71-100%)
Table 2
  concentration at which the compound exhibited maximum % inhibition (DQ2 IL2): 200 µM
